Test results: PMC4874602 (ACS Infectious Diseases, 2016)
Where “and” joins values, the source holds several entries; their conditions need not be identical. Equal values may be shown once. Read-outs that look alike come from different tables or passages of the source.

Tests used:
[1] = C3HeB/FeJ; for AUC168h: single 25 mg/kg oral dose of BDQ
in vivo [2] = details: BALB/c, mouse, po, 25 mg/kg; for Kp / Cmax / half-life / Tmax: single 25 mg/kg oral dose of BDQ; for half-life: t1/2, BALB/c
[3] = BALB/c, single 25 mg/kg oral dose of BDQ
in vivo [4] = details: BALB/c and C3HeB/FeJ, mouse, 25 mg/kg
in vivo [5] = details: C3HeB/FeJ, mouse, po, 25 mg/kg; for Kp / Cmax / half-life / Tmax: single 25 mg/kg oral dose of BDQ; for half-life: t1/2, C3HeB/FeJ
M. tuberculosis Erdman [6] = format: in vivo, Mycobacterium tuberculosis; details: BALB/c, 4 weeks of treatment
M. tuberculosis Erdman [7] = format: in vivo, Mycobacterium tuberculosis
[8] = AUCUL/AUCplasma, uninvolved lung
[9] = C3HeB/FeJ less-responsive subpopulation, BDQ 10 mg/kg

## COc1nc2ccc(Br)cc2cc1[C@@H](c1ccccc1)[C@@](O)(CCN(C)C)c1cccc2ccccc12 [BDQ, bedaquiline]
[1]; 8 h following a single 25 mg/kg dose of BDQ, preliminary
  concentration in dissected caseum of type I granulomas (LC/MS/MS): 974.5 ng/g
[1]; lesion (type I)
  AUC168h: 387.1 µg·h/g
[1]; uninvolved lung
  AUC168h: 653.9 µg·h/g
[1]; whole lung
  AUC168h: 739.42 µg·h/g
In vivo [2]
  AUC(0-t): 33700 ng·h/mL
In vivo [2]; AUCLes/AUCplasma, lesion (type III)
  Kp: 28.2
In vivo [2]; [8]
  Kp: 28.4
In vivo [2]; AUCWL/AUCplasma, whole lung
  Kp: 20.6
In vivo [2]; lesion (cellular non-necrotizing, type III)
  Cmax: 31700 ng/g
In vivo [2]; uninvolved lung
  Cmax: 36000 ng/g
  half-life: 67.4 h
In vivo [2]; whole lung
  Cmax: 22100 ng/g
  half-life: 74.5 h
  Tmax: 8 h
In vivo [2]; lesion (type III)
  half-life: 85.5 h
  Tmax: 8 h
[3]; lesion (type III), 25 mg/kg
  AUC168h: 949 µg·h/g and 949.6 µg·h/g
[3]; uninvolved lung
  AUC168h: 956.6 µg·h/g
[3]; whole lung
  AUC168h: 694.0 µg·h/g
In vivo [4]
  Tmax: 3 h
In vivo [5]
  AUC(0-t): 35900 ng·h/mL
In vivo [5]; AUCLes/AUCplasma, lesion (type I)
  Kp: 10.8
In vivo [5]; [8]
  Kp: 18.2
In vivo [5]; AUCWL/AUCplasma, whole lung
  Kp: 20.6
In vivo [5]; lesion (caseous necrotic granuloma, type I)
  Cmax: 10100 ng/g
In vivo [5]; plasma
  Cmax: 2720 ng/mL
  Tmax: 4 h
In vivo [5]; uninvolved lung
  Cmax: 23300 ng/g
  half-life: 84.1 h
  Tmax: 8 h
In vivo [5]; whole lung
  Cmax: 22900 ng/g
  half-life: 130 h
  Tmax: 8 h
In vivo [5]; lesion (type I)
  half-life: 104 h
  Tmax: 8 h
M. tuberculosis Erdman [6]; BDQ 10 mg/kg oral gavage
  log10 CFU reduction in lungs: 3.1 log10 CFU
M. tuberculosis Erdman [6]; BDQ 25 mg/kg oral gavage
  log10 CFU reduction in lungs: 4.1 log10 CFU
M. tuberculosis Erdman [7]; [9]
  activity against the less-responsive subpopulation: only bacteriostatic
  rate of decrease in log10 CFU in the lungs between 4 and 8 weeks of treatment: 0.0129 log10 CFU/week
M. tuberculosis Erdman [7]; C3HeB/FeJ responsive subpopulation, BDQ 10 mg/kg
  rate of decrease in log10 CFU in the lungs between 4 and 8 weeks of treatment: 0.4392 log10 CFU/week
M. tuberculosis Erdman [7]; C3HeB/FeJ responsive subpopulation, BDQ 25 mg/kg
  rate of decrease in log10 CFU in the lungs between 4 and 8 weeks of treatment: 0.3606 log10 CFU/week
